The text below walks through data of patent publication US20060084135A1, “Compositions for manipulating the lifespan and stress response of cells and organisms” (priority 2003, published 2006).

In one assay the target is T1, recombinant human SIRT1 (Homo sapiens, UniProt Q96EB6).
T1 sequence (Q96EB6 1-747): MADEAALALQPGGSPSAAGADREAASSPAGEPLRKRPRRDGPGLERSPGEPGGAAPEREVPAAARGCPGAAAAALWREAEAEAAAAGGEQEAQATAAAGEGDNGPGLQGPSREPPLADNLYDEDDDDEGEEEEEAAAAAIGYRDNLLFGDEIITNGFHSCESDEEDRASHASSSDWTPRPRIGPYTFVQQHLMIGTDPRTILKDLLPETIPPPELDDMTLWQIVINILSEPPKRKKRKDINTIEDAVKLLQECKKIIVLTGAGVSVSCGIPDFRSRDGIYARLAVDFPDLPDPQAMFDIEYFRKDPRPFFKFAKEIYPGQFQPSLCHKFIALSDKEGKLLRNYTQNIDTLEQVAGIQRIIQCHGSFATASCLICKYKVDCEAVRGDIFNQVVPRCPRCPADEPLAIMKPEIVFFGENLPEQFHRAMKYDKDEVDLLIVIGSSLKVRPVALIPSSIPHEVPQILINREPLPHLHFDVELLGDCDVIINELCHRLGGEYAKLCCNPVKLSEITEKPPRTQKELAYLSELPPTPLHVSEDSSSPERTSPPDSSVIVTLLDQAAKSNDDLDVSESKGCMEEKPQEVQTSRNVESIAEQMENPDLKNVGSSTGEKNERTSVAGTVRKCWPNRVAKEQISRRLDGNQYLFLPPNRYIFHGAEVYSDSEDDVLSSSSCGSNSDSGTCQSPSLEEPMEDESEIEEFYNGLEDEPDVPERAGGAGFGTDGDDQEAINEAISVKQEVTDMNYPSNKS
In words: SIRT1 fluorescent deacetylation assay (p53-382 acetylated peptide substrate). The format is biochemical.

Assay [1] has as its system S. cerevisiae. The assay is described as follows: Yeast replicative lifespan. Conditions: 10 μM, wild type. The format is cell-based. Here is the method:
Average lifespan was determined for wild type untreated (□), quercetin (◯) and piceatannol (●).

Assay [2] concerns W303AR cells (rDNA locus RDN1). In words: Ribosomal DNA recombination frequency. The class given is cell-based, S. cerevisiae.
Assay [3] deals with rDNA silencing (RDN1::URA3). The assay is described as follows: Ribosomal DNA silencing assay (URA3 reporter). The format is cell-based, S. cerevisiae. Here is the method:
Yeast lifespans were determined as in FIG. 2. […] Frequencies were determined by loss of the ADE2 marker gene from the rDNA locus (RDN1). […] Pre-treated cells (RDN1::URA3) were harvested and spotted as 10-fold serial dilutions on either SC or SC with 5-fluororotic acid (5-FOA). In this assay, increased rDNA silencing results in increased survival on 5-FOA medium.
Ribosomal DNA silencing assays using the URA3 reporters were performed as previously described by Bitterman et al. (J Biol Chem 277, 45099-107 (2002)). Ribosomal DNA recombination frequencies were determined by plating W303AR cells (Sinclair, D. A. and Guarente, L. Cell 91, 1033-42 (1997)) on YPD medium with low adenine/histidine and counting the fraction of half-red sectored colonies using Bio-Rad Quantity One software as described by Anderson et al. (J Biol Chem 277, 18881-90. (2002)). At least 6000 cells were analyzed per experiment and all experiments were performed in triplicate. All strains were pre-grown for 15 hours with the relevant compound prior to plating.

For assay [4], the system named is lysine 382 of p53 in U2OS osteosarcoma cells. In words: p53 Ac-K382 Western blot after UV radiation in U2OS cells. The format is cell-based, human. A general note: In western blotting, separated proteins are transferred to a membrane and probed.
Assay [5] relates to lysine 382 of p53 in HEK 293 cells. The assay is described as follows: p53 Ac-K382 Western blot in HEK 293 cells expressing dominant negative SIRT1-H363Y. The format is cell-based, human. Conditions: low concentrations of resveratrol.
Another assay concerns the target T2, human recombinant SIRT2 (Homo sapiens, UniProt Q8IXJ6).
T2 sequence (Q8IXJ6 1-389): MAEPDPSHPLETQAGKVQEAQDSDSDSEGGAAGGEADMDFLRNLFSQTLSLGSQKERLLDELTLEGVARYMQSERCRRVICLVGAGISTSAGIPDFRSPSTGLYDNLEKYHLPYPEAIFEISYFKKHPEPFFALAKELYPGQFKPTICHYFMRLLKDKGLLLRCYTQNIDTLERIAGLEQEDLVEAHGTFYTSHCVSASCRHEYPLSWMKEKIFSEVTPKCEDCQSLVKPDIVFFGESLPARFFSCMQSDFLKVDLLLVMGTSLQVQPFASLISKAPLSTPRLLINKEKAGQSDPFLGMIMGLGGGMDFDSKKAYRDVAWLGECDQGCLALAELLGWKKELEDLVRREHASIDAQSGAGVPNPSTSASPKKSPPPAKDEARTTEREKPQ
The assay is described as follows: SIRT2 deacetylation assay (Fluor de Lys-SIRT2). The class given is biochemical. Conditions: increasing concentrations; 25 μM Fluor de Lys-SIRT2, 25 μM NAD+. From the text: Yeast Sir2 and human SIRT1 are very homologous and differ from human SIRT2 by the addition of an N-terminal domain that is absent in SIRT2. […] Thus, based on the difference in structure of SIRT1 and SIRT2, i.e., the absence of an N-terminal domain, it is believed that the N-terminal domain of SIRT1 and Sir2 is necessary for activation by the compounds described herein. In particular, it is likely that the activator compounds described herein interact with the N-terminal portion of sirtuins. The N-terminal portion of SIRT1 that is necessary for the action of the compounds is from about amino acid 1 to about amino acid 176, and that of Sir2 is from about amino acid 1 to about amino acid 175.

The next assay relates to C. elegans (strain N2). The assay is described as follows: C. elegans lifespan. The format is in vivo. The following applies: 100 μM, 50 worms strain N2 (control 5 alive). The procedure: Thus, the presence of resveratrol in the growth media of C. elegans extends their lifespan.
The effect of some of these compounds on lifespan was determined in yeast, C. elegans and D. melanogaster, as described above.

For assay [6], the system named is S. cerevisiae. In words: Yeast replicative lifespan. The format is cell-based.
The mark [7] stands for this setting: 25 μM NAD+, 25 μM p53-382 acetylated peptide.

Regarding `Oc1ccc(/C=C/c2cc(O)cc(O)c2)cc1` [Resveratrol, 3,5,4′-Trihydroxy-trans-stilbene], the “Apparent Km for NAD+ and acetylated substrate” value on recombinant human SIRT1 (5 μM resveratrol in the presence of 50 μM nicotinamide) is on record as “raised”. At recombinant human SIRT1 (setting [7]), the “Concentration at which the activating effect doubled the rate” value is approximately 11 µM and the “Concentration at which the activating effect was essentially saturated” value was approximately 100 µM. At recombinant human SIRT1 (100 μM resveratrol), the “Effect on the two Vmax determinations” value is listed as “no significant effect”. Also, at recombinant human SIRT1 (100 μM resveratrol, 1 mM p53-382 acetylated peptide), the “Lowering of Km for NAD+” value is “over 5 fold”. In addition, at recombinant human SIRT1 (100 μM resveratrol, 3 mM NAD+), the “Decrease of acetylated peptide Km” value is 35 fold. In addition, the “Km for both NAD+ and acetylated peptide” value at recombinant human SIRT1 (20 and 100 μM resveratrol in the presence of 50 μM nicotinamide) is “lowers”. In addition, the “Vmax, NAD+ varied” value at recombinant human SIRT1 (+100 μM resveratrol, 1 mM p53-382 acetylated peptide (control 1863)) turned out to be 1749 AFU/min. In addition, the “Vmax, p53-382 acetylated peptide varied” value at recombinant human SIRT1 (+100 μM resveratrol, 3 mM NAD+ (control 1107)) came out at 926 AFU/min. In the assay with S. cerevisiae [1], the “Effect on maximum lifespan” value is given as “significantly increased” and the “Increase of average lifespan” value is listed as 70%. For the same molecule, the “rDNA recombination in a sir2 strain” value in assay [2] (sir2 strain) is given as “does not suppress”. In assay [2] (with the Sir2 inhibitor nicotinamide), the “rDNA recombination in the presence of nicotinamide” value was “decreased”. The “Effect on rDNA silencing” value in [3] is recorded as “only minor effects”. The “Level of Ac-K382 of p53 compared to untreated cells” value in assay [4] (0.5 μM resveratrol, 4 hours pre-treatment, UV radiation) is given as “marked decrease”. For the same molecule, the “Level of Ac-K382 of p53” value in [4] (higher concentrations of resveratrol (>50 μM)) is “reversed”. Also, the “Ability to promote deacetylation of p53 in cells expressing dominant-negative SIRT1 (H363Y)” value in assay [5] is listed as “diminished”. Moreover, the “Effect on SIRT2 activity” value at human recombinant SIRT2 is “decrease”. Besides, the “Worms alive on day 17” value in the assay with C. elegans (strain N2) was found to be 17 worms. In the assay on S. cerevisiae [6] (pnc1 null mutant), the “Extension of the lifespan of a pnc1 null mutant” value is listed as “nearly as well as it did wild type cells”. Further, the “Lifespan benefit of concentrations higher than 10 μM” value in the assay with S. cerevisiae [6] (resveratrol 100 μM, 500 μM) was “no added lifespan benefit”. Also, the “Effect on the lifespan of a sir2 null mutant” value in the assay on S. cerevisiae [6] (sir2 null mutant) is reported as “no effect”.
